Data: US10800754B2, “Heterocyclic amide compound” (TAKEDA PHARMACEUTICAL COMPANY LIMITED, priority 2016, dated 2020)

How the values were obtained:
human PRS protein = target: T1, human PRS protein (Homo sapiens, UniProt P07814); test: PRS inhibitory activity (ATP/[32P]pyrophosphate exchange enzyme reaction); format: biochemical; details: 300 nM test compound; recombinant human PRS (EPRS 998-1512); read-out: inhibitory rate (%) of PRS
T1 construct: to construct His-Avi-hEPRS (998-1512) expression plasmid; His tag (N); Avi tag (N); TEV cleavage site (ENLYFQ/GS, encoded by forward primer hEPRS-TEV-NheF) (N); made in house; host or cells: E. coli BL21(DE3)
T1 sequence (P07814 998-1512): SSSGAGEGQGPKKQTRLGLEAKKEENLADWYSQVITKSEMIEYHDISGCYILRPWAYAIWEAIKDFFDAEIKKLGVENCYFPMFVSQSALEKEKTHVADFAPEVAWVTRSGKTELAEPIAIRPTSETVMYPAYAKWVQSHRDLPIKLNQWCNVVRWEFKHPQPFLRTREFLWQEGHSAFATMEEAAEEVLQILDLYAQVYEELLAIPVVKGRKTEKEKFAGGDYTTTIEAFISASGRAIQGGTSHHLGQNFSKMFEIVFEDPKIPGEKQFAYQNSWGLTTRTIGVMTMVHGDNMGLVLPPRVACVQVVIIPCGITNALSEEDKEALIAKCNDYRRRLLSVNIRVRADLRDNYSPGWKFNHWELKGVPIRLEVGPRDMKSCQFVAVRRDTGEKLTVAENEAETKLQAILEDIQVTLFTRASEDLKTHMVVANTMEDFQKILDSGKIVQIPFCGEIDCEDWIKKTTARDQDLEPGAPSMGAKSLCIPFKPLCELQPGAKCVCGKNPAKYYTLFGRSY
Method in brief: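 His-Avi-tagged human EPRS catalytic domain (998-1512), E. coli-expressed, was preincubated 60 min with compound (enzyme added as 40 nM solution) in Tris pH 7.5, KCl, DTT, Tween 20 and MgCl2. The substrate solution contained 300 μM ATP, 160 μM L-proline, and 400 μM pyrophosphate with [32P]pyrophosphate; reaction ran 30 min at room temperature. Charcoal-captured label was counted, with enzyme-free wells taken as 100% inhibition.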

[1] = system: human ovarian cancer cell A2780; test: proliferation inhibitory activity against A2780 cells (CellTiter-Glo); format: cell-based; details: A2780, 72 h, 1 μM test compound, 3 days of culture, read-out: proliferation inhibitory rate (%) of A2780 cells
Experimental: The proliferation inhibitory activity of the compound of the present invention against human ovarian cancer cell A2780 was evaluated by the following method.
Human ovarian cancer cells A2780 were seeded in a 384 well culture plate at 1000 cells in 30 μL of medium per well by using RPMI-1640 medium (Wako Pure Chemical Industries, Ltd.) containing 10% fetal bovine serum and penicillin/streptomycin. The next day, 10 μL of RPMI-1640 medium containing the test compound was added to the cells. After 3 days of culture, 20 μL of CellTiter-Glo Luminescent Cell Viability Assay solution (Promega, Fitchburg, Wis., US) was added. The luminescence signal was measured using EnVision (PerkinElmer, Waltham, Mass., US) and the inhibitory rate (%) of the test compound was calculated with a well free of seeding of cell as 100% inhibition.

| inhibition at 0.3 µM (human PRS protein) [%] | SMILES | inhibition at 1 µM [1] [%] |
| --- | --- | --- |
| 98 | CC1(Cn2cc(-c3cccc(CC(=O)Nc4cc(N5CC[C@@](C#N)(C6CC6)C5=O)ccn4)c3)cn2)COC1 [Example 77, N-(4-((3S)-3-cyano-3-cyclopropyl-2-oxopyrrolidin-1-yl)pyridin-2-yl)-2-(3-(1-((3-methyloxetan-3-yl)methyl)-1H-pyrazol-4-yl)phenyl)acetamide] | 63 |
| 100 | N#C[C@@]1(C2CC2)CCN(c2ccnc(NC(=O)Cc3cccc(-c4cnn(CC5CC5(F)F)c4)c3)c2)C1=O (stereo partly drawn) [Example 78, N-(4-((3S)-3-cyano-3-cyclopropyl-2-oxopyrrolidin-1-yl)pyridin-2-yl)-2-(3-(1-((2,2-difluorocyclopropyl)-methyl)-1H-pyrazol-4-yl)phenyl)acetamide] | 80 |
| 100 | N#C[C@@]1(C2CC2)CCN(c2ccnc(NC(=O)Cc3cccc(-c4cnn(Cc5ccccc5)c4)c3)c2)C1=O [Example 79, 2-(3-(1-benzyl-1H-pyrazol-4-yl)phenyl)-N-(4-((3S)-3-cyano-3-cyclopropyl-2-oxopyrrolidin-1-yl)pyridin-2-yl)acetamide] | 65 |
| 99 | N#C[C@@]1(C2CC2)CCN(c2ccnc(NC(=O)Cc3cccc(-c4cnn(CC5CCCCO5)c4)c3)c2)C1=O (stereo partly drawn) [Example 83, N-(4-((3S)-3-cyano-3-cyclopropyl-2-oxopyrrolidin-1-yl)pyridin-2-yl)-2-(3-(1-(tetrahydro-2H-pyran-2-ylmethyl)-1H-pyrazol-4-yl)phenyl)acetamide] | 58 |
| 97 | N#C[C@@]1(C2CC2)CCN(c2ccnc(NC(=O)Cc3cccc(-c4cnn(CC5CCOCC5)c4)c3)c2)C1=O [Example 84, N-(4-((3S)-3-cyano-3-cyclopropyl-2-oxopyrrolidin-1-yl)pyridin-2-yl)-2-(3-(1-(tetrahydro-2H-pyran-4-ylmethyl)-1H-pyrazol-4-yl)phenyl)acetamide] | 55 |
| 99 | N#C[C@@]1(C2CC2)CCN(c2ccnc(NC(=O)Cc3cccc(-c4cnn(CC5COCCO5)c4)c3)c2)C1=O (stereo partly drawn) [Example 85, N-(4-((3S)-3-cyano-3-cyclopropyl-2-oxopyrrolidin-1-yl)pyridin-2-yl)-2-(3-(1-(1,4-dioxan-2-ylmethyl)-1H-pyrazol-4-yl)phenyl)acetamide] | 54 |
| 100 | N#C[C@@]1(C2CC2)CCN(c2ccnc(NC(=O)Cc3cccc(-c4cnn(CC5CC(F)(F)C5)c4)c3)c2)C1=O [Example 87, N-(4-((3S)-3-cyano-3-cyclopropyl-2-oxopyrrolidin-1-yl)pyridin-2-yl)-2-(3-(1-((3,3-difluorocyclobutyl)-methyl)-1H-pyrazol-4-yl)phenyl)acetamide] | 74 |
| 98 | N#C[C@@]1(C2CC2)CCN(c2ccnc(NC(=O)Cc3cccc(-c4cnn(CCCC(F)(F)F)c4)c3)c2)C1=O [Example 90, N-(4-((3S)-3-cyano-3-cyclopropyl-2-oxopyrrolidin-1-yl)pyridin-2-yl)-2-(3-(1-(4,4,4-trifluorobutyl)-1H-pyrazol-4-yl)phenyl)acetamide] | 61 |
| 100 | CC(C)n1cc(-c2cccc(CC(=O)Nc3cc(N4CC[C@@](C#N)(C5CC5)C4=O)ccn3)c2)cn1 [Example 93, N-(4-((3S)-3-cyano-3-cyclopropyl-2-oxopyrrolidin-1-yl)pyridin-2-yl)-2-(3-(1-isopropyl-1H-pyrazol-4-yl)phenyl)acetamide] | 76 |
| 100 | N#C[C@@]1(C2CC2)CCN(c2ccnc(NC(=O)Cc3cccc(-c4cnn(C5CCOC5)c4)c3)c2)C1=O (stereo partly drawn) [Example 94, N-(4-((3S)-3-cyano-3-cyclopropyl-2-oxopyrrolidin-1-yl)pyridin-2-yl)-2-(3-(1-(tetrahydrofuran-3-yl)-1H-pyrazol-4-yl)phenyl)acetamide] | 74 |
| 99 | N#C[C@@]1(C2CC2)CCN(c2ccnc(NC(=O)Cc3cccc(-c4cnn(CC(F)(F)C(F)F)c4)c3)c2)C1=O [Example 95, N-(4-((3S)-3-cyano-3-cyclopropyl-2-oxopyrrolidin-1-yl)pyridin-2-yl)-2-(3-(1-(2,2,3,3-tetrafluoropropyl)-1H-pyrazol-4-yl)phenyl)acetamide] | 70 |
| 100 | Cn1cc(-c2cc(F)cc(CC(=O)Nc3cc(N4CC[C@@](C#N)(C5CC5)C4=O)cc(Br)n3)c2)cn1 [Example 97, N-(6-bromo-4-((3S)-3-cyano-3-cyclopropyl-2-oxopyrrolidin-1-yl)pyridin-2-yl)-2-(3-fluoro-5-(1-methyl-1H-pyrazol-4-yl)phenyl)acetamide] | 97 |
| 98 | Cc1cc(N2CC[C@@](C#N)(C3CC3)C2=O)cc(NC(=O)Cc2cccc(-c3cnn(C)c3C)c2)n1 [Example 98, N-(4-((3S)-3-cyano-3-cyclopropyl-2-oxopyrrolidin-1-yl)-6-methylpyridin-2-yl)-2-(3-(1,5-dimethyl-1H-pyrazol-4-yl)phenyl)acetamide] | 69 |
| 99 | CCc1cc(N2CC[C@@](C#N)(C3CC3)C2=O)cc(NC(=O)Cc2cc(F)cc(-c3cnn(C)c3)c2)n1 [Example 99, N-(4-((3S)-3-cyano-3-cyclopropyl-2-oxopyrrolidin-1-yl)-6-ethylpyridin-2-yl)-2-(3-fluoro-5-(1-methyl-1H-pyrazol-4-yl)phenyl)acetamide] | 70 |
| 101 | CC(C)(O)CCn1cc(-c2cccc(CC(=O)Nc3cc(N4CC[C@@](C#N)(C5CC5)C4=O)ccn3)c2)cn1 [Example 100, N-(4-((3S)-3-cyano-3-cyclopropyl-2-oxopyrrolidin-1-yl)pyridin-2-yl)-2-(3-(1-(3-hydroxy-3-methylbutyl)-1H-pyrazol-4-yl)phenyl)acetamide] | 84 |
| 99 | CC(C)(O)Cn1cc(-c2cccc(CC(=O)Nc3cc(N4CC[C@@](C#N)(C5CC5)C4=O)ccn3)c2)cn1 [Example 101, N-(4-((3S)-3-cyano-3-cyclopropyl-2-oxopyrrolidin-1-yl)pyridin-2-yl)-2-(3-(1-(2-hydroxy-2-methylpropyl)-1H-pyrazol-4-yl)phenyl)acetamide] | 69 |
| 100 | Cc1cc(N2CC[C@@](C#N)(C3CC3)C2=O)cc(NC(=O)Cc2cccc(-c3cn(C)nc3C)c2)n1 [Example 102, N-(4-((3S)-3-cyano-3-cyclopropyl-2-oxopyrrolidin-1-yl)-6-methylpyridin-2-yl)-2-(3-(1,3-dimethyl-1H-pyrazol-4-yl)phenyl)acetamide] | 89 |
| 97 | Cc1cc(-c2cccc(CC(=O)Nc3cc(N4CC[C@@](C#N)(C5CC5)C4=O)cc(C)n3)c2)cnn1 [Example 103, N-(4-((3S)-3-cyano-3-cyclopropyl-2-oxopyrrolidin-1-yl)-6-methylpyridin-2-yl)-2-(3-(6-methylpyridazin-4-yl)phenyl)acetamide] | 67 |
| 98 | Cc1cc(N2CC[C@@](C#N)(C3CC3)C2=O)nc(NC(=O)Cc2cccc(-c3cnn(C)c3)c2)n1 [Example 132, N-(4-((3S)-3-cyano-3-cyclopropyl-2-oxopyrrolidin-1-yl)-6-methylpyrimidin-2-yl)-2-(3-(1-methyl-1H-pyrazol-4-yl)phenyl)acetamide] | 73 |
